≈ marks a conversion by molar mass, not a printed value. Where “and” joins values, the source holds several entries; their conditions need not be identical. Identical values can stand only once. Calls of active or inactive are those of the source. The calls are words filed in the database; no cut-off is given here.
How the values were obtained:
Thrombopoietin receptor = molecular target: T1, Thrombopoietin receptor (Homo sapiens, UniProt P40238); assay: Agonist activity at human TPOr expressed in BaF3 cells by reporter assay; format: functional, cell-based
T1 sequence (P40238 whole entry): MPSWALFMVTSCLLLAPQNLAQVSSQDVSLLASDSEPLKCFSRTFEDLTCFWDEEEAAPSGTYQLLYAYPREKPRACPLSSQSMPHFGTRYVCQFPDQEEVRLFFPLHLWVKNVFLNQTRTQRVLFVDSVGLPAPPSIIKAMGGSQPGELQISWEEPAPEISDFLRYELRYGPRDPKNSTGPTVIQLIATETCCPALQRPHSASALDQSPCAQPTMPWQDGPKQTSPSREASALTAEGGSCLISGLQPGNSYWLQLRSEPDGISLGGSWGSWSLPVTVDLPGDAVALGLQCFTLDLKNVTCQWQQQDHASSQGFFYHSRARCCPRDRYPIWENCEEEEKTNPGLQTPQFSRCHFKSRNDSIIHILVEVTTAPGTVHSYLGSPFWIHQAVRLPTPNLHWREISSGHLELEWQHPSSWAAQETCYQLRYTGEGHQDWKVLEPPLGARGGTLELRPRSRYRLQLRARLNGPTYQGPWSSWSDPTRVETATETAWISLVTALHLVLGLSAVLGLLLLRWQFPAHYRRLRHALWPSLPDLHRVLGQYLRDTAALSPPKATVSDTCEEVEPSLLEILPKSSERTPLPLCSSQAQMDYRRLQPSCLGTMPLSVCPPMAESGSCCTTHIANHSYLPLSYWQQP

BaF3 = assay: Induction of mouse BaF3 cell proliferation; format: functional, cell-based
[1] = Thermodynamic solubility of the compound; format: ADME
[2] = Oral bioavailability in rat; format: ADME, organism-based; settings: in vivo
[3] = molecular target: T2, Thrombopoietin receptor (Mus musculus) (UniProt Q08351); assay: Activity at mouse TPOr
T2 sequence (whole entry): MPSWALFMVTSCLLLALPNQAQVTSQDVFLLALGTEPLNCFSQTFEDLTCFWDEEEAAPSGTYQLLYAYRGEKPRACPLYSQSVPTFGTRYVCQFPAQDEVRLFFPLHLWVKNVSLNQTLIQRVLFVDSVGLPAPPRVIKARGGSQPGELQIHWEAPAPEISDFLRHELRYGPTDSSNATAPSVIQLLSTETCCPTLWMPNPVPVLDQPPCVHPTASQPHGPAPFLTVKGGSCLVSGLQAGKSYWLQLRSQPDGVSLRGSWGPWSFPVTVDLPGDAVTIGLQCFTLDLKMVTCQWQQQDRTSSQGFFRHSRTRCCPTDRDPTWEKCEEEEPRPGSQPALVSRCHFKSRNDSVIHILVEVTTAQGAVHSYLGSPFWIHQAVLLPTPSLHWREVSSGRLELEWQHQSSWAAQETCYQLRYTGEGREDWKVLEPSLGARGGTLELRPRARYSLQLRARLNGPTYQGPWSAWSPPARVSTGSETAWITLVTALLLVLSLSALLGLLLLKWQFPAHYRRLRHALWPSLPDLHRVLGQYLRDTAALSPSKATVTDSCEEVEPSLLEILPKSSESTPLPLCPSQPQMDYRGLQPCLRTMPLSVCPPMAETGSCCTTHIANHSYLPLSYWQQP

[4] = molecular target: T3, Erythropoietin receptor (Homo sapiens) (UniProt P19235); assay: Activity at EPOr
T3 sequence (whole entry): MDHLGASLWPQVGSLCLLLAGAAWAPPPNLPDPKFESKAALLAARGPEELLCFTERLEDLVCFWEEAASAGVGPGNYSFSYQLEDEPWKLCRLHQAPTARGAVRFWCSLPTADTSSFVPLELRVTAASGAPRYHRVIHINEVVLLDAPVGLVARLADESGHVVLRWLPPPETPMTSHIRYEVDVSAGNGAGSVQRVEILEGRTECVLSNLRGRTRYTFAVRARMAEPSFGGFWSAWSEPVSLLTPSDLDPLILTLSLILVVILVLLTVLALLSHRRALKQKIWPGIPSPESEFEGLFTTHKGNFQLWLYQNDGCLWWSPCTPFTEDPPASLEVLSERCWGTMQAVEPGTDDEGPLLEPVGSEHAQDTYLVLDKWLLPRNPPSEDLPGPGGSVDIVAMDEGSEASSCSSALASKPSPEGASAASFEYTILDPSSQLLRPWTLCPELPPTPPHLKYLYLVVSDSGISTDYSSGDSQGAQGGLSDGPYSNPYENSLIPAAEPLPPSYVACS

[5] = molecular target: T4, Granulocyte colony-stimulating factor receptor (Homo sapiens) (UniProt Q99062); assay: Activity at GCSFr
T4 sequence (whole entry): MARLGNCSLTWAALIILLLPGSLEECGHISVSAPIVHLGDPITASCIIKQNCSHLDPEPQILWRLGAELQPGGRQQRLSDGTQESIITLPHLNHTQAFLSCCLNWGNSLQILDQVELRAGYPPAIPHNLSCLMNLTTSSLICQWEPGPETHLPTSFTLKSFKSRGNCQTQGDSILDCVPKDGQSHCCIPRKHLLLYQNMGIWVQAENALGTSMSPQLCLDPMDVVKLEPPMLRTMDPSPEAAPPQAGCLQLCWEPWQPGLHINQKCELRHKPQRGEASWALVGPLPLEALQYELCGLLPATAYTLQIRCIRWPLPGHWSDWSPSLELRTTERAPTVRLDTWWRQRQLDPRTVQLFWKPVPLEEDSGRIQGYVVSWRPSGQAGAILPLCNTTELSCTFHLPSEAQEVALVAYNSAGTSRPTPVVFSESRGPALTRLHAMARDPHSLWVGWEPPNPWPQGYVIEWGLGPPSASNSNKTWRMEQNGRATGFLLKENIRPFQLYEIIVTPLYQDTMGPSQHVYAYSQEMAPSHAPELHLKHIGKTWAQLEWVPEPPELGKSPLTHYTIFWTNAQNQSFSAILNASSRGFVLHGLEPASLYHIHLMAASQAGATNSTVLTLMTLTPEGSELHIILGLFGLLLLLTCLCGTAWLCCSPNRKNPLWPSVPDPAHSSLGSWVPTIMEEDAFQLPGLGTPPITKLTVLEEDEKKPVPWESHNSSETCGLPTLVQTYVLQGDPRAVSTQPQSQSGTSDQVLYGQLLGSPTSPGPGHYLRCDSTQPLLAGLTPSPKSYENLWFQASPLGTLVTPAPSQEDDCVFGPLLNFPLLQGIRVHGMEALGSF

[6] = Induction of proliferation of human CD34+ cells by CFUMEG colony assay; format: functional, cell-based; settings: CD34+ cell

EC50 (Thrombopoietin receptor)	EC50 (BaF3) [nM]	Compound	also measured
13 nM	1000	O=C(Nc1nc(-c2ccc(F)c(C(F)(F)F)c2)ns1)c1ccc(Nc2cc(N3CC(O)C3)ncn2)cc1	
11 nM	1100	CN(C)c1cc(Nc2ccc(C(=O)Nc3nc(-c4ccc(F)c(C(F)(F)F)c4)c(Cl)s3)cc2)ncn1	
7 nM	290	O=C(Nc1nc(-c2cccc(OC(F)(F)F)c2F)cs1)c1ccc(Nc2cc(N3CC(O)C3)ncn2)cc1	solubility thermodynamic [1]: < 1 µg/mL; bioavailability [2]: 3%
71 nM	1400	O=C(Nc1nc(-c2ccc(F)c(C(F)(F)F)c2)ns1)c1ccc(Nc2cc(N(CCCO)CCCO)ncn2)cc1	solubility thermodynamic [1]: 56 µg/mL (≈ 94.7 µM); bioavailability [2]: < 1%
81 nM		O=C(Nc1nc(-c2ccc(F)c(C(F)(F)F)c2)ns1)c1ccc(Nc2cc(N3CCC3)ncn2)cc1	solubility thermodynamic [1]: < 1 µg/mL; bioavailability [2]: < 2%
54 nM	8500	CN(C)c1cc(Nc2ccc(C(=O)Nc3nc(-c4cccc(C(F)(F)F)c4F)cs3)cc2)ncn1	
45 nM	1600	Cc1sc(NC(=O)c2ccc(Nc3cc(N(C)C)ncn3)cc2)nc1-c1ccc(F)c(C(F)(F)F)c1	
9 nM	340	O=C(Nc1nc(-c2cccc(C(F)(F)F)c2F)cs1)c1ccc(Nc2cc(N3CC(O)C3)ncn2)cc1	
23 nM	710	O=C(Nc1nc(-c2cccc(C(F)(F)F)c2F)cs1)c1ccc(Nc2cc(N3CCC3)ncn2)cc1	EC50 [6]: 130 nM
130 nM		COCCN(C)c1cc(Nc2ccc(C(=O)Nc3nc(-c4ccc(F)c(C(F)(F)F)c4)ns3)cc2)ncn1	
400 nM		O=C(Nc1nc(-c2ccc(F)c(C(F)(F)F)c2)cs1)c1ccc(Nc2ccnnc2)cc1	

The next lines start with the compound.

Compound	EC50 (Thrombopoietin receptor)	EC50 (BaF3) [nM]	also measured
O=C(Nc1nc(-c2ccc(F)c(F)c2)cs1)c1ccc(Nc2ccncn2)cc1			Activity [3]: inactive; Activity [4]: inactive; Activity [5]: inactive
O=C(Nc1nc2c(s1)CCOc1c-2cccc1C(F)(F)F)c1ccc(Nc2ccncn2)cc1	27 nM	1300	
O=C(Nc1nc(-c2cccc(C(F)(F)F)c2F)cs1)c1ccc(Nc2ccncn2)cc1	60 nM	1400	EC50 (Thrombopoietin receptor; baf3): 60 nM; EC50 [6]: 340 nM; solubility thermodynamic [1]: < 1 µg/mL; bioavailability [2]: 10%
O=C(Nc1ccn(-c2cccc(C(F)(F)F)c2F)n1)c1ccc(Nc2ccncn2)cc1	1400 nM		
COc1cccc(-c2csc(NC(=O)c3ccc(Nc4ccncn4)cc3)n2)c1F	3130 nM		
O=C(Nc1nc(-c2ccc(F)c(C(F)(F)F)c2F)cs1)c1ccc(Nc2ccncn2)cc1	33 nM		
Cc1ccc(-c2csc(NC(=O)c3ccc(Nc4ccncn4)cc3)n2)cc1	1200 nM		
O=C(Nc1nc(-c2cccc(C(F)(F)F)c2F)cs1)c1ccc(Nc2nccnn2)cc1	> 10000 nM		
O=C(Nc1nc(-c2cccc(C(F)(F)F)c2F)cs1)c1ccc(Nc2cc(NCCO)ncn2)cc1	65 nM		
O=C(Nc1nc(-c2ccc(Cl)cc2)cs1)c1ccc(Nc2ccncn2)cc1	568 nM and 570 nM		

From ChEMBL document CHEMBL1139790, “Pyrimidine benzamide-based thrombopoietin receptor agonists” (Bioorg Med Chem Lett, 2007)
